Results: patent US5955357A, “In-vitro-derived human neutrophil precursor cells” (Nexell Therapeutics Inc., priority 1994, dated 1999)

B1: G-CSF: hematopoietic growth factor, granulocyte colony-stimulating factor (protein, UniProt P09919 31-207, looked up)
Granulocyte …: TPLGPASSLPQSFLLKCLEQVRKIQGDGAALQEKLVSECATYKLCHPEELVLLGHSLGIPWAPLSSCPSQALQLAGCLSQLHSGLFLYQGLLQALEGISPELGPTLDTLQLDVADFATTIWQQMEELGMAPALQPTQGAMPAFASAFQRRAGGVLVASHLQSFLEVSYRVLRHLAQP

Test system: CD15+CD11b- neutrophil precursors
Assay: single cell proliferation assay of sorted neutrophil precursors in hematopoietic growth factors
Type: cell-based, human
Settings: after 10 days in culture; for Percent of Total Cells Evaluated, 0 Cells/Wells / Percent of Total Cells Evaluated, 1-4 Cells/Well / Percent of Total Cells Evaluated, 5-8 Cells/Well / Percent of Total Cells Evaluated, 9-16 Cells/Well / Percent of Total Cells Evaluated, 17-32 Cells/Well / Percent of Total Cells Evaluated, >32 Cells/Well: Table V, individual growth factors, neutrophil precursors
Procedure: Apheresis samples were collected after peripheral blood counts reached 1000/ul from patients mobilized with G-CSF (10 ug/kg/day) following cyclophosphamide/VP16 chemotherapy. Apheresis was performed using the CS-3000® blood cell separator (Fenwal Division, Baxter Healthcare, Deerfield, Ill.). Bone marrow was collected from normal volunteers.
The assays were performed by sorting single cells based upon expression of CD15 and CD11b by flow cytometry into multiwell plates containing 10 ul of culture media with various growth factor combinations. […] The same studies were performed on fresh bone marrow for comparison. Plates containing the sorted cells were incubated at 37° C. and the number of cells in each well were counted on days 1, 3 and 10. For further characterization of antigenic expression, cells at varying timepoints of culture were stained with the following antigenic combinations: FITC-CD15/PE-CD11b, FITC-CD71/PE-CD45RA,and FITC-CD67/PE-CD34.
To assess the absolute requirement of growth factors on the proliferation of neutrophil precursors, single cells were plated in the presence or absence of all four growth factors described above. The single cell cultures were incubated for an additional 10 days and then each well was scored for the number of total cells. The wells were categorized according to the number of cells per well.
To determine which single growth factor or combination of growth factors would support proliferation of neutrophil precursors, various combinations of the above growth factors were tested in the single cell proliferation assay.

Molecule | Percent of Total Cells Evaluated, 0 Cells/Wells [%] | Percent of Total Cells Evaluated, 1-4 Cells/Well [%] | Percent of Total Cells Evaluated, 5-8 Cells/Well [%] | Percent of Total Cells Evaluated, 9-16 Cells/Well [%] | Percent of Total Cells Evaluated, 17-32 Cells/Well [%] | Percent of Total Cells Evaluated, >32 Cells/Well [%] | fraction of proliferating neutrophil precursors and extent of proliferation, compared with other growth factors (result in words)
SCF: hematopoietic growth factor, stem cell factor | 25 | 52 | 13 | 8 | 2 | 1 | –
GM-CSF: hematopoietic growth factor, granulocyte and macrophage colony-stimulating factor | 33 | 44 | 12 | 6 | 4 | 1 | –
B1 | 22 | 40 | 10 | 10 | 6 | 13 | enhances proliferation to a greater extent then either GM-CSF, IL-3 or SCF alone
